Target: T1, GluDH-BS (Bacillus subtilis, UniProt P12310)
T1 construct: gene gdh; full length, plasmid pHGBS, overexpressed in B. subtilis 168 (strain BS), crude cell-free extract
Test: NADPH formation at […] nm, crude extract
Type: biochemical
Details: glucose, CPB buffer, 37 °C; turnover only

T1 sequence (P12310 whole entry): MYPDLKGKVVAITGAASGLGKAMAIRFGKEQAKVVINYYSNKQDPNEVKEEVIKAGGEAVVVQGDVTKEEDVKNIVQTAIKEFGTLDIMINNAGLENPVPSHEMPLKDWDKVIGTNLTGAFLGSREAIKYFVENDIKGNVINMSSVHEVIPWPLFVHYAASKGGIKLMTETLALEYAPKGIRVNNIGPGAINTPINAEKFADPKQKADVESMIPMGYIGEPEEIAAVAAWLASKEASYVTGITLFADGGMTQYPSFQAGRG

Structure (SMILES): NC(=O)c1ccc[n+]([C@@H]2O[C@H](COP(=O)(O)OP(=O)(O)OC[C@H]3O[C@@H](n4cnc5c(N)ncnc54)[C@H](OP(=O)(O)O)[C@@H]3O)[C@@H](O)[C@H]2O)c1 [NADP^+]
- NADPH formation at 340 nm, crude extract: crude GluDH-BS (closed circle) and GluDH-BA (open circle) when using NADP^+ as a cofactor
